# Data: article doi:10.1101/2025.10.24.684335v1 (bioRxiv, 2025)
# Assays:
# Format in all cases: cell-based, human
# [1] = test system: AKT; experiment: AKT phosphorylation; conditions: normalized to GAPDH
# [2] = test system: ERK; experiment: ERK phosphorylation in hCMEC/D3 monolayers, Western blot; conditions: normalized to GAPDH
# [3] = test system: RAGE; experiment: RAGE expression in hCMEC/D3 membrane fraction, Western blot; conditions: normalized to calnexin
# [4] = test system: claudin-5; experiment: Claudin-5 immunocytochemistry in hCMEC/D3 monolayers, confocal microscopy; conditions: 10 nM butyrate 6 h, 1 μM Aβ42 for the last hour; AF647 immunofluorescence
# [5] = 10 nM butyrate 6 h with 50 nM insulin for 5 min, p<0.05
compound,measurement,setting,value
"CCCC(=O)O [butyrate, sodium butyrate]","AKT phosphorylation, fold increase vs insulin alone-treated group",[1]; [5],3 fold
same,"ERK phosphorylation, fold increase vs insulin alone-treated group",[2]; [5],~1.3 fold
same,RAGE expression vs Aβ42 alone (reversal of Aβ42-induced increase),[3]; butyrate 5 h then co-incubation with 1 μM Aβ42 for 1 h,not significant
same,Claudin-5 expression vs Aβ42 alone group,[4],increased
Aβ42: unlabeled amyloid beta 42 peptide supplied by Aapptec [reference compound],"RAGE expression, fold increase vs control","[3]; 1 μM Aβ42 for 1 h alone, p<0.05",2.4 fold
insulin: insulin used at 50 nM to stimulate insulin signaling,AKT phosphorylation vs untreated group,[1]; 50 nM insulin 5 min alone,not statistically significant
same,"ERK phosphorylation, fold increase vs untreated group","[2]; 50 nM insulin 5 min alone, p<0.001",3 fold
